Measurements published in ChEMBL document CHEMBL1140492, “Synthesis and inhibitory activity of 4-alkynyl and 4-alkenylquinazolines: identification of new scaffolds for potent EGFR tyrosine kinase inhibitors” (Bioorg Med Chem Lett, 2007).

Molecular target: Epidermal growth factor receptor (Homo sapiens, UniProt P00533)
Assay: Inhibition of partially purified EGFR tyrosine kinase from human A431 cells

Sequence of Epidermal growth factor receptor (P00533 whole entry): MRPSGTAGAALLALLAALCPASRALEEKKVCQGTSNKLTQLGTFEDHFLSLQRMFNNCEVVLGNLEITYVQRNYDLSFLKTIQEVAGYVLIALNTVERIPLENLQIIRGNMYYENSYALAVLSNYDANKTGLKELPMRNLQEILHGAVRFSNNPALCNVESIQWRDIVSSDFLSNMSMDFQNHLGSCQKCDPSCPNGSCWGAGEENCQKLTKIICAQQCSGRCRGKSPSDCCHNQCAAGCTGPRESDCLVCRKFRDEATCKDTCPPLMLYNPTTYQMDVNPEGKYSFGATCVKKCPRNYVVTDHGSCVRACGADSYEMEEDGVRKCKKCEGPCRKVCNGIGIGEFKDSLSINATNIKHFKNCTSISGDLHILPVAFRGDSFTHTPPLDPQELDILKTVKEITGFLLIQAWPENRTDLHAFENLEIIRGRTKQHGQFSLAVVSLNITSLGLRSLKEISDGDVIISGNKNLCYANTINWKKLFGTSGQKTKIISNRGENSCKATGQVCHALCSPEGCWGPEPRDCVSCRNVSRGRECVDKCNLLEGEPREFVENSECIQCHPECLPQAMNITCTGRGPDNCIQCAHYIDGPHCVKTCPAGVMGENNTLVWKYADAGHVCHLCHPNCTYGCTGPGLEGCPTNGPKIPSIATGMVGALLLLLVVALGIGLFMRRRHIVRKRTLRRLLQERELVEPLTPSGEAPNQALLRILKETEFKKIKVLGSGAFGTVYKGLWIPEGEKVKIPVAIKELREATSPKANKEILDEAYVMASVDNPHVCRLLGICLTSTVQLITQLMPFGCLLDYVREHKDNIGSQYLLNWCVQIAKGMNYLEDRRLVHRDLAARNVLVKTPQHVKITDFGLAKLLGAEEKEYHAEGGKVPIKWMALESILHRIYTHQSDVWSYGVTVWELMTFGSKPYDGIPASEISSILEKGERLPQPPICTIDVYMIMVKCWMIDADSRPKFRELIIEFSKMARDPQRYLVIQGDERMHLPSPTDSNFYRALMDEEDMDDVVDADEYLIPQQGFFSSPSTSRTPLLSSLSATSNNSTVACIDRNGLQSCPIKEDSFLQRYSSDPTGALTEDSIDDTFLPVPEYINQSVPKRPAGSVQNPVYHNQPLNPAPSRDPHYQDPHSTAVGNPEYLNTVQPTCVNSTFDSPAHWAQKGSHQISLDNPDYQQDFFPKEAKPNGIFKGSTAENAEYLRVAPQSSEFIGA

Row | IC50 [nM] | SMILES
1 | 14 | COc1cc2ncnc(C#CCCc3ccccc3)c2cc1OC
2 | 80 | COc1cc2ncnc(C#CC(C)(C)N(C)c3ccccc3)c2cc1OC
3 | 1200 | CCN(CC)[C@@](C)(C#Cc1ncnc2cc(OC)c(OC)cc12)CCc1ccccc1
4 | 7300 | CCN(CC)[C@@](C)(C#Cc1ncnc2cc(OC)c(OC)cc12)c1ccccc1
5 | 5600 | COc1cc2ncnc(C#Cc3ccccc3)c2cc1OC
6 | 15 | COc1cc2ncnc(C#CCOc3ccccc3)c2cc1OC
7 | 3 | CCN(CC)[C@@](C)(C#Cc1ncnc2cc(OC)c(OC)cc12)Cc1ccccc1
8 | 13 | COc1cc2ncnc(C#CC(C)(C)Cc3ccccc3)c2cc1OC

The next lines start with the molecule.

Row | SMILES | IC50 [nM]
9 | COc1cc2ncnc(/C=C/CCc3ccccc3)c2cc1OC | 4
10 | CCN(CC)[C@@](C)(CCc1ncnc2cc(OC)c(OC)cc12)Cc1ccccc1 | 130
11 | CCOc1cc2ncnc(/C=C/CCc3ccccc3)c2cc1OCC | 5
12 | CCOc1cc2ncnc(C#Cc3c[nH]nc3-c3ccc(F)cc3)c2cc1OCC | 1.8
13 | CCOc1cc2ncnc(C#C[C@](C)(Cc3ccccc3)N3CCC(C(=O)O)CC3)c2cc1OCC | 662
14 | CCN(CC)[C@@](C)(C#Cc1ncnc2cc(OC)c(OC)cc12)CC1CCCCC1 | 1100
15 | CCOc1cc2ncnc(/C=C/c3ccccc3)c2cc1OCC | 15
16 | CCOc1cc2ncnc(C#Cc3nccn3-c3ccccc3)c2cc1OCC | 12
17 | CCOc1cc2ncnc(C#Cc3[nH]ccc3-c3ccccc3)c2cc1OCC | 10
18 | COc1cc2ncnc(C#C[C@@](C)(Cc3ccccc3)N3CCC(C(=O)O)CC3)c2cc1OC | 33
19 | CCOc1cc2ncnc(C#CC(C)(Cc3ccccc3)N3CCC(C(=O)O)CC3)c2cc1OCC (racemic) | 11.7
20 | CCOc1cc2ncnc(/C=C/CCCc3ccccc3)c2cc1OCC | 140
21 | CCOc1cc2ncnc(C#C[C@@](C)(Cc3ccccc3)N3CCC(C(=O)O)CC3)c2cc1OCC | 4.2
22 | CCN(CC)[C@@](C)(C#Cc1ncnc2cc(OC)c(OC)cc12)Cc1ccncc1 | 200
23 | COc1cc2ncnc(C#Cc3ccccc3-c3ccccc3)c2cc1OC | 26
